Measured values: US9370503B1, “Compounds for treating ocular diseases” (priority 2015, dated 2016)

Legend:
[1] = system: HUVECs; assay: NaN3-induced injury in HUVECs (MTT); assay type: cell-based, human; details: 72 hours
Description: (§1) ARPE-19 cells were grown in DMEM/F12 medium supplemented with 10% FBS, 100 units/ml penicillin G, and 100 μg/ml streptomycin sulfate. HUVECs were grown in vascular cell basal medium supplemented with endothelial cell growth kit. Cells were incubated in a humidified incubator at 37° C. under 5% CO2 and 95% air.
(§2) MTT assay was used to measure the viability of ARPE-19 cells and HUVECs. 2×10^5 ARPE-19 cells or 5×10^4 HUVECs were seeded in 96-well plates (100 μl/well) and allowed to grow overnight. Negative control was prepared by adding 100 μl medium without cells. The cells were then treated with fresh medium with a compound of Formula (II) (“(II)”) (0.03, 0.1, 0.3, 1, 3 and 10 μg/ml) and/or oxidants (NaIO3, H2O2, t-BHP and NaN3) for 12, 24, or 72 hours (200 μl/well). The vehicle control group was treated with vehicle. 20 μl MTT (5 mg/ml) was added to wells, and incubated for another 4 h. After incubation, the medium was discarded and 100 μl DMSO was added to solubilize formazan produced from MTT by the viable cells. Absorbance was measured at 570 nm using a microplate reader (Bio-Rad Laboratories, Inc., CA). Cells viability was calculated according to the following formula: Viability of cells (%)=(absorbance in tested sample−absorbance in negative control)/(absorbance in vehicle control−absorbance in negative control)×100%.

[2] = system: Ocular Hypertensive Rabbit; assay: Ocular blood flow in ocular hypertensive rabbit (colored microspheres); assay type: in vivo; details: 1% topical instillation, 30 minutes after drug instillation
Description: 0.5% alcaine was purchased commercially. A 20% sterilized hypertonic saline solution was prepared in the laboratory. Colored microspheres were purchased from E-Z Trac (Los Angeles, Calif.). The colored microspheres were diluted with saline containing 0.01% (v/v) of Tween 80 to prevent the microspheres from sticking together. Two million microspheres in 0.4 ml were injected at each time point.
Female New Zealand white rabbits weighing 2.-3.0 kg, were purchased commercially. Animal care and treatment were followed by the institutional guidelines.
Rabbits were anesthetized with 35 mg/kg ketamine and 5 mg/kg xylazine by intramuscular injection. Half of the initial dose was given every one hour thereafter. The left ventricle was cannulated through the right carotid artery for injection of colored microspheres and the femoral artery was cannulated for collection of blood samples. The left eye was treated with one drop of proparacaine hydrochloride ophthalmic solution (Bausch & Lomb, Inc., Tampa, Fla., USA). The needle was inserted directly into the anterior chamber of the left eye, which was connected to the 40 mmHg saline manometer. The ocular hypertensive model reduced the ocular blood flow to approximately one third of the normal valued. 50 μl of 10 g/l flavone or vehicle (30% HP-β-CD solution) was instilled topically to the left eye 30 minutes after the ocular hypertensive model was built. The ocular blood flow was measured by colored microspheres at 0, 30, 60 and 120 minutes after treatment with the compounds or vehicle. At each time point, 2 million microspheres were injected as a reference, and blood samples were taken from the femoral artery for exactly one minute following injection of the microspheres. The blood sample was collected in a heparinized tube and the volume was recorded. The rabbits were euthanized with an injection of 100 mg/kg pentobarbital sodium after the last blood sampling. The left eyes were enucleated and dissected into the iris, ciliary body, retina and choroid. All the tissues were weighed.
The details of sample processing and microsphere counting were provided by E-Z Trac (Los Angeles, Calif., USA). In brief, the blood hemolysis reagent was added to the microfuge tubes with the blood sample, then vortexed and centrifuged for 30 minutes at 6000 rpm. The supernatant was removed, and then tissue/blood digest reagents I and II were added. The tubes were capped, vortexed, and centrifuged for 30 minutes. […] The number of microspheres was counted by the hemocytometer under the microscope. […] The protocol thereafter was the same as that used to process the blood samples, and the microspheres were counted.
The blood flow of each tissue at a certain time point was calculated according to the following formula: Qm=(Cm×Qr)/Cr. […]

[3] = Hypoxia-induced damage in HUVECs (MTT); assay type: cell-based, human; details: human, HUVECs, 10 μg/ml, P<0.01, read-out: decrease of viability of HUVECs in hypoxic condition
Description: as §1, §2
(§3) Cells were allowed to attach overnight, and then exposed to (II) or vehicle under hypoxic condition for 72 h. Hypoxic conditions (1% O2, 5% CO2 and 94% N2) were maintained by using a temperature and humidity controlled environmental C-chamber by O2 and CO2 controllers (Proox Model 110 and Pro CO2 Model 120, Bio Spherix Ltd., Redfield, N.Y., USA) with N2 and CO2 gas sources.

[4] = system: HUVECs; assay: Hypoxia-induced damage in HUVECs (MTT); assay type: cell-based, human; details: 72 h
Description: as §1, §2, §3

[5] = system: HUVECs; assay: t-BHP-induced injury in HUVECs (MTT); assay type: cell-based, human; details: 12 hours
Description: as §1, §2

[6] = system: ARPE-19 cells; assay: MTT assay, proliferation/cytotoxicity in ARPE-19 cells; assay type: cell-based, human; details: 72 hours
Description: as §1, §2

[7] = system: HUVECs; assay: MTT assay, proliferation/cytotoxicity in HUVECs; assay type: cell-based, human; details: 72 hours
Description: as §1, §2

[8] = system: HUVECs; assay: H2O2-induced injury in HUVECs (MTT); assay type: cell-based, human; details: 24 hours; for enhancement of H2O2-induced injury in HUVECs: 10 μg/ml compound
Description: as §1, §2

[9] = system: ARPE-19 cells; assay: NaIO3-induced injury in ARPE-19 cells (MTT); assay type: cell-based, human; details: 72 h
Description: as §1, §2

[10] = system: ARPE-19 cells; assay: H2O2-induced injury in ARPE-19 cells (MTT); assay type: cell-based, human; details: 10 μg/ml compound, 24 hours
Description: as §1, §2

In the case of `CC(C)=CCC/C(C)=C/Cc1c([C@@H]2CC(=O)c3c(cc(O)c(CC=C(C)C)c3O)O2)ccc(O)c1O` [Formula (II)], the “enhancement of NaN3-induced injury in HUVECs” value ([1]; 0.3 mM NaN3, 3 μg/ml compound) was 75%, the “enhancement of NaN3-induced injury in HUVECs” value ([1]; 0.3 mM NaN3, 10 μg/ml compound) was 95% and the “enhancement of NaN3-induced injury in HUVECs” value ([1]; 1 mM NaN3, 10 μg/ml compound) was 75%. The “enhancement of NaN3-induced injury in HUVECs” value ([1]; 3 mM NaN3, 3 μg/ml compound) was 44%, the “enhancement of NaN3-induced injury in HUVECs” value ([1]; 3 mM NaN3, 10 μg/ml compound) was 71% and the “blood flow in choroid” value [2] was “significantly increased”. The “blood flow in iris” value [2] was “significantly increased”, the cytotoxicity at 72 h, 10 μg/ml [3] was 97% and the “increase of viability of HUVECs in hypoxic condition” value (“increase of viability of HUVECs” for short) ([4]; 0.03 μg/ml) was 22%. The “increase of viability of HUVECs” value ([4]; 0.1 μg/ml) was 19%, the “increase of viability of HUVECs” value ([4]; 0.3 μg/ml) was 26% and the “enhancement of t-BHP-induced injury in HUVECs” value ([5]; 50 μM t-BHP, 3 μg/ml compound) was 27%. The “enhancement of t-BHP-induced injury in HUVECs” value ([5]; 50 μM t-BHP, 10 μg/ml compound) was 71%, the “enhancement of t-BHP-induced injury in HUVECs” value ([5]; 100 μM t-BHP, 3 μg/ml compound) was 21% and the “enhancement of t-BHP-induced injury in HUVECs” value ([5]; 100 μM t-BHP, 10 μg/ml compound) was 80%. For the same compound, the “enhancement of t-BHP-induced injury in HUVECs” value ([5]; 200 μM t-BHP, 10 μg/ml compound) was 76%, the “effect on proliferation of ARPE-19 cells” value ([6]; 0.03 μg/ml to 3 μg/ml) was “did not affect” and the inhibition at 10 µg/mL ([6]; Homo sapiens, ARPE-19, 10 μg/ml) was 34%. For the same compound, the “effect on proliferation of HUVECs” value ([7]; 0.03 μg/ml to 3 μg/ml) was “did not affect”, the inhibition at 10 µg/mL ([7]; Homo sapiens, HUVEC, 10 μg/ml) was 92% and the “enhancement of H2O2-induced injury in HUVECs” value ([8]; 200 μM H2O2) was 63%. The “enhancement of H2O2-induced injury in HUVECs” value ([8]; 400 μM H2O2) was 42%, the “effect on H2O2-induced injury in HUVECs” value ([8]; 0.3 and 1 μg/ml compound) was “reversed” and the “effect on viability in NaIO3-induced injury in ARPE-19 cells” value ([9]; 30 μg/ml NaIO3, 0.03, 1, 3 and 10 μg/ml compound, P<0.05) was “significantly reversed”. The “reversal of viability in NaIO3-induced injury in ARPE-19 cells” value ([9]; 100 μg/ml NaIO3, 10 μg/ml compound) was 24%, the “reversal of viability in NaIO3-induced injury in ARPE-19 cells” value ([9]; 300 μg/ml NaIO3, 3 μg/ml compound) was 7% and the “reversal of H2O2-induced injury in ARPE-19 cells” value ([10]; 200 μM H2O2) was 55%. The “reversal of H2O2-induced injury in ARPE-19 cells” value ([10]; 400 μM H2O2) was 72%.
